From patent publication US20240300933A1, “SALT AND CRYSTAL FORMS OF AN HMOX1 INDUCER” (MITOBRIDGE INC., priority 2021, published 2024)
In brackets after ≈: the same amount, converted by molar mass. Values belong to the compound of their own block, whether it stands above or below them.

Columns and labels:
pKa of the freebase form = format: physicochemical; settings: basic
[1] = Thermodynamic solubility in water and bio-media (SGF, FaSSIF, FeSSIF) at 37° C.; format: physicochemical; settings: for pH / FC (Form Change) / solubility at 1 h / solubility at 4 h / solubility at 24 h: 37° C.; for pH: filtrate of supernatant; for solubility at 1 h / solubility at 4 h / solubility at 24 h: thermodynamic from solid
Description: Specifically, about 40 mg samples (calculated with freebase) were added to 4.0 mL of each buffer. After shaking at 100 rpm at 37° C. for 1/4/24 hour(s), about 1.0 mL of each suspension was centrifuged for 5 minutes. The solids were analyzed by XRPD for crystal form, and the filtrates of supernatants were detected by HPLC for solubility and by pH meter for pH value.

[2] = PK study in Cynomolgus macaques, PO single dose; format: in vivo, Cynomolgus macaques (Macaca fascicularis); settings: for AUC(0-inf) / AUC(0-t) / Cmax: male, cynomolgus monkey, blood; for exposure (AUC) compared to the free form, in words: Cynomolgus monkeys, monophosphate
Description: A PK Study of Crystalline form of 1:1 compound (I) Phosphate and compound (I) crystal form was conducted in Cynomolgus macaques (Cynomolgus non-human primates; Macaca fascicularis). […] Blood samples were collected at 0.25, 0.5, 1, 2, 4, 6, 8 and 24 hours, and were analyzed to determine Cmax and exposure (AUC).

[3] = Hygroscopicity by dynamic vapor sorption (DVS); settings: for weight gain: DVS, 25° C., at 90% RH; for hygroscopicity compared with the citrate salt, in words: monophosphate
[4] = simulated gastric fluid, SGF, 1 Hr
[5] = simulated gastric fluid, SGF, 4 Hrs
[6] = simulated gastric fluid, SGF, 24 Hrs
[7] = Cynomolgus macaques, 10 mg/Kg PO single dose
[8] = Cynomolgus macaques, 100 mg/Kg PO single dose

pKa (pKa of the freebase form): ~2.75 | pH ([1]; FaSSIF, 1 Hr): 6.30 | FC (Form Change) ([1]; FaSSIF, 1 Hr, solid by XRPD): No | pH ([1]; FaSSIF, 4 Hrs): 6.35 | FC (Form Change) ([1]; FaSSIF, 4 Hrs, solid by XRPD): No | pH ([1]; FaSSIF, 24 Hrs): 5.99 | FC (Form Change) ([1]; FaSSIF, 24 Hrs, solid by XRPD): No | pH ([1]; FeSSIF, 1 Hr): 4.78 | FC (Form Change) ([1]; FeSSIF, 1 Hr, solid by XRPD): No | pH ([1]; FeSSIF, 4 Hrs): 4.73 | FC (Form Change) ([1]; FeSSIF, 4 Hrs, solid by XRPD): No | pH ([1]; FeSSIF, 24 Hrs): 4.81 | FC (Form Change) ([1]; FeSSIF, 24 Hrs, solid by XRPD): No | FC (Form Change) ([1]; SGF, 1 Hr): No | pH ([1]; SGF, 1 Hr): 2.34 | FC (Form Change) ([1]; SGF, 4 Hrs): No | pH ([1]; SGF, 4 Hrs): 2.16 | FC (Form Change) ([1]; SGF, 24 Hrs): No | pH ([1]; SGF, 24 Hrs): 2.51 | solubility at 1 h [1, 4]: 7040 µg/mL (≈ 17.8 mM) | solubility at 4 h [1, 5]: 6860 µg/mL (≈ 17.3 mM) | solubility at 24 h [1, 6]: 7080 µg/mL (≈ 17.9 mM) | pH ([1]; water, 1 Hr): 5.69 | FC (Form Change) ([1]; water, 1 Hr, solid by XRPD): No | pH ([1]; water, 4 Hrs): 5.07 | FC (Form Change) ([1]; water, 4 Hrs, solid by XRPD): No | pH ([1]; water, 24 Hrs): 5.95 | FC (Form Change) ([1]; water, 24 Hrs, solid by XRPD): No | AUC(0-inf) [2, 7]: 2030 ng·h/mL | AUC(0-t) [2, 7]: 1920 ng·h/mL | Cmax [2, 7]: 164 ng/mL | AUC(0-inf) [2, 8]: 4740 ng·h/mL | AUC(0-t) [2, 8]: 4080 ng·h/mL | Cmax [2, 8]: 350 ng/mL
Compound: Cn1c(Nc2nc3ccccc3o2)nc2cc(C(=O)NCCOCCO)ccc21 [Compound (I), 2-[(1,3-benzoxazol-2-yl)amino]-N-[2-(2-hydroxyethoxy)ethyl]-1-methyl-1H-benzimidazole-5-carboxamide]

solubility compared to Compound (I), in words ([1]; FaSSIF and SGF): improved solubility | pH ([1]; FaSSIF, 1 Hr): 2.37 | FC (Form Change) ([1]; FaSSIF, 1 Hr, solid by XRPD): Yes | pH ([1]; FaSSIF, 4 Hrs): 2.37 | pH ([1]; FaSSIF, 24 Hrs): 2.36 | pH ([1]; FeSSIF, 1 Hr): 4.06 | FC (Form Change) ([1]; FeSSIF, 1 Hr, solid by XRPD): Yes | pH ([1]; FeSSIF, 4 Hrs): 4.21 | pH ([1]; FeSSIF, 24 Hrs): 4.31 | FC (Form Change) ([1]; SGF, 1 Hr): Clear | pH ([1]; SGF, 1 Hr): 1.36 | FC (Form Change) ([1]; SGF, 4 Hrs): Clear | pH ([1]; SGF, 4 Hrs): 1.37 | FC (Form Change) ([1]; SGF, 24 Hrs): Clear | pH ([1]; SGF, 24 Hrs): 1.41 | solubility at 1 h [1, 4]: > 25900 µg/mL | solubility at 4 h [1, 5]: > 28400 µg/mL | solubility at 24 h [1, 6]: > 28400 µg/mL | solubility at 1 h ([1]; FaSSIF, 1 Hr): 190 µg/mL | solubility at 4 h ([1]; FaSSIF, 4 Hrs): 180 µg/mL | solubility at 24 h ([1]; FaSSIF, 24 Hrs): 70 µg/mL | solubility at 1 h ([1]; FeSSIF, 1 Hr): 1400 µg/mL | solubility at 4 h ([1]; FeSSIF, 4 Hrs): 770 µg/mL | solubility at 24 h ([1]; FeSSIF, 24 Hrs): 390 µg/mL | solubility at 1 h ([1]; water, 1 Hr): 4390 µg/mL | solubility at 4 h ([1]; water, 4 Hrs): 3230 µg/mL | solubility at 24 h ([1]; water, 24 Hrs): 2060 µg/mL | solubility compared to the free form, in words ([1]; water and bio-relevant media): significant solubility improvement | pH ([1]; water, 1 Hr): 2.05 | FC (Form Change) ([1]; water, 1 Hr, solid by XRPD): Yes | pH ([1]; water, 4 Hrs): 2.04 | pH ([1]; water, 24 Hrs): 1.97 | higher exposure compared to free form Compound (I) ([2]; Cynomolgus macaques, 10 and 100 mpk oral dose): 1.5 times | Cmax compared to the free form, in words ([2]; Cynomolgus macaques, Table 7): roughly double | exposure (AUC) compared to the free form, in words ([2]; 10 and 100 mpk oral dose, listed as phosphate salt): roughly double | exposure (AUC) compared to the free form, in words ([2]; 10 and 100 mpk oral dose): roughly twice the exposure | AUC(0-inf) [2, 7]: 3590 ng·h/mL | AUC(0-t) [2, 7]: 3480 ng·h/mL | Cmax [2, 7]: 322 ng/mL | AUC(0-inf) [2, 8]: 9330 ng·h/mL | AUC(0-t) [2, 8]: 7580 ng·h/mL | Cmax [2, 8]: 723 ng/mL | weight gain [3]: 0.835% | hygroscopicity compared with the citrate salt, in words ([3]; listed as phosphate salt): lower hygroscopicity | hygroscopicity compared with the citrate salt, in words [3]: low hygroscopicity
Compound: Cn1c(Nc2nc3ccccc3o2)nc2cc(C(=O)NCCOCCO)ccc21.O=P(O)(O)O [1:1 Compound (I) Phosphate, 2-[(1,3-benzoxazol-2-yl)amino]-N-[2-(2-hydroxyethoxy)ethyl]-1-methyl-1H-benzimidazole-5-carboxamide monophosphate]

Compound: Citrate
weight gain [3]: 3.223%
